Measured values taken from publication PMC6352943, “Novel pyrazolo[3,4-d]pyrimidines: design, synthesis, anticancer activity, dual EGFR/ErbB2 receptor tyrosine kinases inhibitory activity, effects on cell cycle profile and caspase-3-mediated apoptosis” (Journal of Enzyme Inhibition and Medicinal Chemistry, 2019).

Legend:
ACHN = assay: MTT cell viability assay; type: cell-based, human; conditions: Homo sapiens; ACHN renal cancer, MTT, 48 h, mean ± SD of three experiments; read-out: IC50 (concentration required for 50% inhibition of cell viability)
Procedure: (§1) Cell Line cells were obtained from American Type Culture Collection, cells were cultured using Dulbecco's Modified Eagle's medium (DMEM) (Invitrogen/Life Technologies) supplemented with 10% foetal bovine serum (FBS) (Hyclone), 10 μg/mL of insulin (Sigma), and 1% penicillin-streptomycin. All of the other chemicals and reagents were from Sigma, or Invitrogen. Plate cells (cells density 1.2 – 1.8 × 10,000 cells/well) in a volume of 100 µL complete growth medium and 100 μL of the tested compound per well in a 96-well plate for 24 h before the MTT assay.
(§2) Remove culture medium to a centrifuge tube. […] Add 2.0 to 3.0 ml of Trypsin EDTA solution to flask and observe cells under an inverted microscope until cell layer is dispersed. Add 6 to 8 ml of complete growth medium and aspirate cells by gently pipetting. Transfer the cell suspension to the centrifuge tube with the medium and centrifuge for 5 to 10 min. Discard the supernatant. Resuspend the cell pellet in fresh growth medium. Add appropriate aliquots of the cell suspension to new culture vessels. Incubate cultures at 37 °C for 24 h. After treatment of cells with the serial concentrations of the compound to be tested incubation is carried out for 48 h at 37 °C, then the plates are to be examined under the inverted microscope and proceed for the MTT assay.
(§3) The 3–(4, 5-dimethylthiazol-2-yl)-2,5-diphenyltetrazolium bromide (MTT) method[30] of monitoring in vitro cytotoxicity is well suited for use with multiwell plates. The assessment of cell population growth is based on the capability of living cells to reduce the yellow product MTT to a blue product, formazan, by a reduction reaction occurring in the mitochondria. The five cell lines were incubated for 24 h in 96-microwell plates. The number of living cells in the presence or absence (control) of the various test compounds is directly proportional to the intensity of the blue colour, measured by spectrophotometry using (ROBONIK P2000 Spectrophotometer) at a wavelength of 570 nm. Measure the background absorbance of multiwell plates at 690 nm and subtract from the 570 nm measurement. Five concentrations ranging from 0.01 μM to 100 μM (with semi-log decrease in concentration) were tested for each of the compounds under study. Each experiment was carried out in triplicate. The IC50 values [the concentration required for 50% inhibition of cell viability] were calculated using sigmoidal dose response curve-fitting models.

NCI-H460 = assay: MTT cell viability assay; type: cell-based, human; conditions: Homo sapiens; NCI-H460 lung cancer, MTT, 48 h, mean ± SD of three experiments; read-out: IC50 (concentration required for 50% inhibition of cell viability)
Procedure: as §1, §2, §3

OVCAR-4 = assay: MTT cell viability assay; type: cell-based, human; conditions: Homo sapiens; OVCAR-4 ovarian cancer, MTT, 48 h, mean ± SD of three experiments; read-out: IC50 (concentration required for 50% inhibition of cell viability)
Procedure: as §1, §2, §3

melting point [°C] | IC50 (ACHN) [µM] | IC50 (NCI-H460) [µM] | IC50 (OVCAR-4) [µM] | Structure (SMILES)
262 to 264 | – | – | – | Cc1nn(-c2ccc(F)cc2)c2ncnc(NN=Cc3ccncc3)c12 [Compound 10d, 1–(4-Fluorophenyl)-3-methyl-4–(2-(pyridin-4-yl-methylidene) hydrazinyl)-1H-pyrazolo[3,4-d]pyrimidine]
– | 12.4 ± 1.88 | 8.36 ± 0.69 | 2.79 ± 0.41 | C#Cc1cccc(Nc2ncnc3cc(OCCOC)c(OCCOC)cc23)c1 [Erlotinib, reference compound]
